Assay results: ChEMBL document CHEMBL3813680, “Discovery of a 2-hydroxyacetophenone derivative as an outstanding linker to enhance potency and β-selectivity of liver X receptor agonist” (Bioorg Med Chem, 2016)
pEC50: −log10 of the molar value. Calls of active or inactive are those of the source. No cut-off for these calls is given here.

Experiments:
[1] = target: T1, Oxysterols receptor LXR-alpha (Homo sapiens, UniProt Q13133); assay: Agonist activity at GAL4 fused LXRalpha (unknown origin) transfected in CHOK1 cells after 24 hrs by luciferase reporter gene assay
T1 sequence (Q13133 whole entry): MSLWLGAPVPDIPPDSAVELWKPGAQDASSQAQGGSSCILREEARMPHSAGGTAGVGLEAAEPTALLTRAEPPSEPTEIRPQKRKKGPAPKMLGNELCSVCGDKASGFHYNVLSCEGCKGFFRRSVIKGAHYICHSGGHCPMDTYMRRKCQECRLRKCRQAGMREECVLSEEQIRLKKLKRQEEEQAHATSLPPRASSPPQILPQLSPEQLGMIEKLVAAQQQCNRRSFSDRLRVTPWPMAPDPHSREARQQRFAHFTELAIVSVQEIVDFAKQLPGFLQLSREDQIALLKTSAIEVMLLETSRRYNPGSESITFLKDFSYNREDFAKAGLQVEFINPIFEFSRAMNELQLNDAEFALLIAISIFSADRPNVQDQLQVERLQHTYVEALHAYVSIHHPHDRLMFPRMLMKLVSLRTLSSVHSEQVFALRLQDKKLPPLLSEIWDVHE

[2] = target: T2, Oxysterols receptor LXR-alpha (Homo sapiens) (UniProt Q13133); assay: Agonist activity at GAL4 fused LXRalpha (unknown origin) transfected in CHOK1 cells at 10 uM after 24 hrs by luciferase reporter gene assay in presence of T0901317; format: cell-based; settings: CHO-K1
T2 sequence (whole entry): T1 sequence (Q13133 whole entry)

[3] = target: T3, Oxysterols receptor LXR-beta (Homo sapiens, UniProt P55055); assay: Agonist activity at GAL4 fused LXRbeta-LBD (unknown origin) transfected in CHOK1 cells after 24 hrs by luciferase reporter gene assay
T3 sequence (P55055 whole entry): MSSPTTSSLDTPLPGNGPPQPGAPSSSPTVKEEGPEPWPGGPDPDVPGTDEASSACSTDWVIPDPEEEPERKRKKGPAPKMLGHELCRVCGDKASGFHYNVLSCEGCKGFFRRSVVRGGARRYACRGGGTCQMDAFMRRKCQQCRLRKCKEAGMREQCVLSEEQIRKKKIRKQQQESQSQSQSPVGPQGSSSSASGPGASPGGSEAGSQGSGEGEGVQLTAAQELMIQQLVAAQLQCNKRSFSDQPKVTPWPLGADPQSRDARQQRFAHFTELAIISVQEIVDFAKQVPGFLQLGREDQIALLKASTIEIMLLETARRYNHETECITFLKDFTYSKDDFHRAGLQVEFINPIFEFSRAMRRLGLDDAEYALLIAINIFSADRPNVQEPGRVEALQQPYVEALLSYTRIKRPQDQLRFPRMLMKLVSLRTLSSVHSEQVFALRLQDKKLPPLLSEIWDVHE

[4] = target: T4, Oxysterols receptor LXR-beta (Homo sapiens) (UniProt P55055); assay: Agonist activity at GAL4 fused LXRbeta-LBD (unknown origin) transfected in CHOK1 cells at 10 uM after 24 hrs by luciferase reporter gene assay in presence of T0901317; format: cell-based; settings: CHO-K1
T4 sequence (whole entry): T3 sequence (P55055 whole entry)

CHO-K1 = assay: Selectivity ratio of EC50 for GAL4 fused LXRalpha (unknown origin) transfected in CHOK1 cells to EC50 for GAL4 fused LXRbeta-LBD (unknown origin) transfected in CHOK1 cells; format: cell-based; settings: Homo sapiens
[5] = Intrinsic clearance in mouse liver microsomes at 1 umol/L; format: ADME; settings: read-out: CLH
[6] = Intrinsic clearance in hamster liver microsomes at 1 umol/L; format: ADME; settings: cricetinae, read-out: CLH
[7] = Intrinsic clearance in human liver microsomes at 1 umol/L; format: ADME; settings: read-out: CLH
[8] = target: T2, Oxysterols receptor LXR-alpha (Homo sapiens); assay: Agonist activity at GAL4 fused LXRalpha (unknown origin) transfected in CHOK1 cells at 10 uM after 24 hrs by luciferase reporter gene assay; format: cell-based; settings: CHO-K1
[9] = Cmax in mouse plasma at 100 mg/kg, po measured up to 24 hrs by HPLC-LC-MS/MS analysis; format: ADME, organism-based; set-up: dose 100 mg/kg, route oral
[10] = AUC in mouse plasma at 100 mg/kg, po measured up to 24 hrs by HPLC-LC-MS/MS analysis; format: ADME, organism-based; set-up: dose 100 mg/kg, time < 24 hr, route oral
[11] = target: T4, Oxysterols receptor LXR-beta (Homo sapiens); assay: Agonist activity at GAL4 fused LXRbeta-LBD (unknown origin) transfected in CHOK1 cells at 10 uM after 24 hrs by luciferase reporter gene assay; format: cell-based; settings: CHO-K1
Mus musculus [12] = assay: Antiatherosclerosis activity in LDL receptor knock out mouse model assessed as decrease in area of lipid accumulation at 10 mg/kg, po by HPLC analysis relative to control; format: functional; set-up: scale not given: the % may be the effect or the level left
Mus musculus [13] = assay: Antiatherosclerosis activity in LDL receptor knock out mouse model assessed as increase in TG levels at 10 mg/kg, po by HPLC analysis relative to control; format: functional
Mus musculus [14] = assay: Antiatherosclerosis activity in LDL receptor knock out mouse model assessed as decrease in LDL-C levels at 10 mg/kg, po by HPLC analysis relative to control; format: functional; set-up: scale not given: the % may be the effect or the level left
Mus musculus [15] = assay: Antiatherosclerosis activity in LDL receptor knock out mouse model assessed as […] in HDL-C levels at 10 mg/kg, po by HPLC analysis relative to control; format: functional; set-up: scale not given: the % may be the effect or the level left
Mus musculus [16] = assay: Antiatherosclerosis activity in LDL receptor knock out mouse model assessed as decrease in TC levels at 10 mg/kg, po by HPLC analysis relative to control; format: functional; set-up: scale not given: the % may be the effect or the level left

| Structure (SMILES) | pEC50 [1] | Emax [2] [%] | pEC50 [3] | Emax [4] [%] | Ratio EC50 (CHO-K1) | Activity [8] | other results |
| --- | --- | --- | --- | --- | --- | --- | --- |
| CCCc1cc(C(O)(C(F)(F)F)C(F)(F)F)ccc1Oc1ccc(CCN2C(=O)NC(C)(c3ccc(OC(C)C)cc3)C2=O)c(C)c1 (stereo not drawn) | 5.50 | 53 | 6.15 | 615 | 4.89 |  |  |
| CCCc1cc(C(O)(C(F)(F)F)C(F)(F)F)ccc1Oc1ccc(C(=O)CN2C(=O)NC(C)(c3ccc(OC(C)C)cn3)C2=O)c(O)c1 (racemic) [listing 1 of 2 here] |  | 68 |  | 329 | 5.69 |  |  |
| CCCc1cc(C(O)(C(F)(F)F)C(F)(F)F)ccc1Oc1ccc(C(=O)CN2C(=O)NC(C)(c3ccc(OC(C)C)cc3)C2=O)cc1 (stereo not drawn) | 6.44 | 46 | 6.92 | 236 | 3 |  |  |
| CCCc1cc(C(O)(C(F)(F)F)C(F)(F)F)ccc1Oc1ccc(C(=O)CN2C(=O)NC(C)(c3ccc(OC(C)C)cn3)C2=O)c(O)c1 (racemic) [listing 2 of 2 here] | 6.48 |  | 7.24 |  |  |  | microsomal CLint at 1 µM [5]: 24 µL/min/mg; microsomal CLint at 1 µM [6]: 11 µL/min/mg; microsomal CLint at 1 µM [7]: 7 µL/min/mg |
| CCCc1cc(C(O)(C(F)(F)F)C(F)(F)F)ccc1Oc1ccc(CCN2C(=O)NC(C)(c3ccc(OC(C)C)cc3)C2=O)c(O)c1 (stereo not drawn) |  | 1 | 5.54 | 284 | 3.48 | inactive |  |
| CCCc1cc(C(O)(C(F)(F)F)C(F)(F)F)cc(CCC)c1OCCCCN1C(=O)NC(C)(c2ccc(OC(C)C)cc2)C1=O (racemic) |  |  |  |  |  |  | Cmax [9]: 406 ng/mL; AUC at 24 h [10]: 3420 ng·h/mL |
| CCCc1cc(C(O)(C(F)(F)F)C(F)(F)F)ccc1Oc1ccc(C(=O)CN2C(=O)NC(C)(c3ccc(OC(C)C)cn3)C2=O)c(O)c1 (single isomer, unassigned; (-)) |  | 164 |  | 255 |  |  |  |
| CCCc1cc(C(O)(C(F)(F)F)C(F)(F)F)cc(CCC)c1OC/C=C/CN1C(=O)NC(C)(c2ccc(OC(C)C)cc2)C1=O (stereo not drawn) | 5.91 | 40 | 6.10 | 182 | 1.54 |  |  |
| CCCc1cc(C(O)(C(F)(F)F)C(F)(F)F)ccc1Oc1ccc(C(=O)CN2C(=O)NC(C)(c3ccc(OC(C)C)cn3)C2=O)c(O)c1 (single isomer, unassigned; (+)) [listing 1 of 2 here] |  |  | 5.54 |  |  |  |  |
| CCCc1cc(C(O)(C(F)(F)F)C(F)(F)F)ccc1Oc1ccc(CCN2C(=O)NC(C)(c3ccc(OC(C)C)cc3)C2=O)c(OC)c1 (stereo not drawn) |  | 0 | 5.78 | 534 | 6.02 | inactive |  |
| CCCc1cc(C(O)(C(F)(F)F)C(F)(F)F)cc(CCC)c1OC/C=C\CN1C(=O)NC(C)(c2ccc(OC(C)C)cc2)C1=O (stereo not drawn) |  | 0 |  | 1 |  | inactive | Activity [11]: inactive |
| CCCc1cc(C(O)(C(F)(F)F)C(F)(F)F)ccc1Oc1ccc(C(=O)CN2C(=O)NC(C)(c3ccc(OC(C)C)cn3)C2=O)c(O)c1 (single isomer, unassigned; (+)) [listing 2 of 2 here] |  | 25 |  | 269 |  | inactive |  |
| CCCc1cc(C(O)(C(F)(F)F)C(F)(F)F)ccc1Oc1ccc(CN2C(=O)NC(C)(c3ccc(OC(C)C)cc3)C2=O)cc1 (stereo not drawn) |  | 0 | 5.74 | 22 | > 5.52 | inactive |  |
| CCCc1cc(C(O)(C(F)(F)F)C(F)(F)F)cc(CCC)c1OCC#CCN1C(=O)NC(C)(c2ccc(OC(C)C)cc2)C1=O (stereo not drawn) | 6.07 | 27 | 6.21 | 149 | 1.41 |  |  |
| CCCc1cc(C(O)(C(F)(F)F)C(F)(F)F)ccc1Oc1cccc(CCN2C(=O)NC(C)(c3ccc(OC(C)C)cc3)C2=O)c1 (stereo not drawn) | 5.54 | 23 | 5.55 | 126 | 1.01 |  |  |
| O=S(=O)(c1ccccc1)N(CC(F)(F)F)c1ccc(C(O)(C(F)(F)F)C(F)(F)F)cc1 [T091317] |  |  |  |  |  |  | Activity (Mus musculus [12]): 40%; Activity (Mus musculus [13]): 465%; Activity (Mus musculus [14]): 55%; Activity (Mus musculus [15]): 47%; Activity (Mus musculus [16]): 96% |
| CCCc1cc(C(O)(C(F)(F)F)C(F)(F)F)ccc1Oc1cccc(CN2C(=O)NC(C)(c3ccc(OC(C)C)cc3)C2=O)c1 (stereo not drawn) | 5.71 | 53 | 6.30 | 429 | 3.92 |  |  |
| CCCc1cc(C(O)(C(F)(F)F)C(F)(F)F)ccc1Oc1ccc(CCN2C(=O)NC(C)(c3ccc(OC(C)C)cc3)C2=O)cc1 (stereo not drawn) |  | 1 | 5.73 | 223 | > 5.32 | inactive |  |
| CCCc1cc(C(O)(C(F)(F)F)C(F)(F)F)ccc1Oc1ccc(C(O)CN2C(=O)NC(C)(c3ccc(OC(C)C)cc3)C2=O)cc1 (stereo not drawn) |  | 5 | 5.63 | 176 | 4.29 | inactive |  |
| CCCc1cc(C(O)(C(F)(F)F)C(F)(F)F)ccc1Oc1ccc(C(=O)CN2C(=O)NC(C)(c3ccc(OC(C)C)cc3)C2=O)c(OC)c1 (stereo not drawn) | 5.43 | 38 | 6.44 | 306 | 10.4 |  |  |
| CCCc1cc(C(O)(C(F)(F)F)C(F)(F)F)ccc1Oc1ccc(C(=O)CN2C(=O)NC(C)(c3ccc(OC(C)C)cc3)C2=O)c(C)c1 (stereo not drawn) | 6.40 | 71 | 7.19 | 264 | 6.25 |  |  |
| CCCc1cc(C(O)(C(F)(F)F)C(F)(F)F)ccc1Oc1ccc(C(=O)CN2C(=O)NC(C)(c3ccc(OC(C)C)cc3)C2=O)c(O)c1 (stereo not drawn) | 6.47 | 55 | 6.96 | 348 | 3.09 |  | microsomal CLint at 1 µM [5]: 76 µL/min/mg; microsomal CLint at 1 µM [6]: 27 µL/min/mg; microsomal CLint at 1 µM [7]: 12 µL/min/mg |
